Assay results: ChEMBL document CHEMBL3272069, “Inhibition of acetylcholinesterase by thiamine. A structure-function study” (J Med Chem, 1977)
Active and inactive are the calls of the source. The calls are words filed in the database; no cut-off is given here.

How the values were obtained:
Acetylcholinesterase [1] = target: T1, Acetylcholinesterase (Electrophorus electricus, UniProt O42275); assay: (§1) Noncompetitive inhibition of electric eel AChE using acetylthiocholine chloride as substrate at pH 7 by Michaelis-Menten plot analysis
T1 sequence (O42275 whole entry): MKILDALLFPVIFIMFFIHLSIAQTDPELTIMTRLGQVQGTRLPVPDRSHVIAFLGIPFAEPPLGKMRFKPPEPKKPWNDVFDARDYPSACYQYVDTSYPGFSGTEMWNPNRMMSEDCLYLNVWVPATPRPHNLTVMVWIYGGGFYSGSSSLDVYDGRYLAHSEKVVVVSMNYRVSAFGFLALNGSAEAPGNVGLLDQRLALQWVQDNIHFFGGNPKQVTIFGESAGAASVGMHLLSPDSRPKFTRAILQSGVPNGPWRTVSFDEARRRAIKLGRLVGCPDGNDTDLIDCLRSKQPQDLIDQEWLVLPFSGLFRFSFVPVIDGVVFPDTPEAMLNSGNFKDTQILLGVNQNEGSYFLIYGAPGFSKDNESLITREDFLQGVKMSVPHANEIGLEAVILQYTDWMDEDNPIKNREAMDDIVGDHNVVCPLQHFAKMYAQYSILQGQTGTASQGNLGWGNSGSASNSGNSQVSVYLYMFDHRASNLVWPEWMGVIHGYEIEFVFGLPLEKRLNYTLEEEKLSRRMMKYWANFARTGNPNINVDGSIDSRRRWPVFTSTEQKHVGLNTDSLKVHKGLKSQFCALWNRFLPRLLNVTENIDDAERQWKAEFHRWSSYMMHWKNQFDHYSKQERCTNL

Acetylcholinesterase [2] = target: T1, Acetylcholinesterase; assay: (§2) Competitive inhibition of electric eel AChE using acetylthiocholine chloride as substrate at pH 7 by Michaelis-Menten plot analysis
Acetylcholinesterase [3] = target: T1, Acetylcholinesterase; assay: (§3) Competitive inhibition of electric eel AChE using acetylthiocholine chloride as substrate at pH 8.25 by Michaelis-Menten plot analysis
Acetylcholinesterase [4] = target: T1, Acetylcholinesterase; assay: (§4) Noncompetitive inhibition of electric eel AChE using acetylthiocholine chloride as substrate at pH 8.25 by Michaelis-Menten plot analysis
[5] = Dissociation constant, pKa of the compound by potentiometric titration analysis; format: physicochemical
[6] = target: Acetylcholinesterase (Electrophorus electricus) (UniProt O42275); assay: as §1
Acetylcholinesterase (Electrophorus electricus), sequence (O42275 24-633 limits assumed): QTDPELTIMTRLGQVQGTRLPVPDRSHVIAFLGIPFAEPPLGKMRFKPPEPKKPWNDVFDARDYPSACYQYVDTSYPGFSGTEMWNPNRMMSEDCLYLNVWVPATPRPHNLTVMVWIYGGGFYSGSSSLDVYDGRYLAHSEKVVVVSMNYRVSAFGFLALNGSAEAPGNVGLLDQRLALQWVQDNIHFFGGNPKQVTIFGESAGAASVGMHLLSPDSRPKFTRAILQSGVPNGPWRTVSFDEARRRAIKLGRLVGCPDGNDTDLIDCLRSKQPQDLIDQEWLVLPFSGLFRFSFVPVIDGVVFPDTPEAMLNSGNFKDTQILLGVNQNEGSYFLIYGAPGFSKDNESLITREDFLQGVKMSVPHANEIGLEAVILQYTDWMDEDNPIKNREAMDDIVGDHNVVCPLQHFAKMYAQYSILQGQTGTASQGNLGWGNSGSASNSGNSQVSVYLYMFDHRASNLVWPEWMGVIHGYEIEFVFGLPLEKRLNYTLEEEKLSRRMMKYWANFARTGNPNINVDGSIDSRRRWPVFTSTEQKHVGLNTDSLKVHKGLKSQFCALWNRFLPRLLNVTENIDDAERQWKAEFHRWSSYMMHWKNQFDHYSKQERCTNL

[7] = target: Acetylcholinesterase (Electrophorus electricus) (UniProt O42275); assay: as §2
[8] = target: Acetylcholinesterase (Electrophorus electricus) (UniProt O42275); assay: as §3
[9] = target: Acetylcholinesterase (Electrophorus electricus) (UniProt O42275); assay: as §4

SMILES | Ki (Acetylcholinesterase [1]) | Ki (Acetylcholinesterase [2]) | Ki (Acetylcholinesterase [3]) | Ki (Acetylcholinesterase [4]) | pKa [5] | inhibition [6] | inhibition [7] | inhibition [8] | inhibition [9]
Cc1ncsc1CCO | 1370 µM | 7990 µM | 8610 µM | 706 µM | – | – | – | – | –
Cc1ncc(C)c(N)n1 | 260 µM | 111 µM | 163 µM | 551 µM | 6.5 | – | – | – | –
Cc1ncc(C[n+]2csc(CCO)c2C)c(N)n1 [THIAMINE] | 565 µM | 432 µM | 392 µM | 333 µM | – | – | – | – | –
Cc1ncc(CN2CSC(CCO)C2C)c(N)n1 (stereo not drawn) | 624 µM | 188 µM | 496 µM | 839 µM | 7.6 | – | – | – | –
Cc1csc[n+]1C | 9.8 µM | 67.9 µM | 54.8 µM | 445 µM | – | – | – | – | –
CCc1scnc1C | 1950 µM | 468 µM | 562 µM | 51100 µM | – | – | – | – | –
Cc1ncc(CN2CSC3CCOC32C)c(N)n1 (stereo not drawn) | – | – | 541 µM | 237 µM | – | – | – | – | –
Cc1ncc(CS(=O)(=O)O)c(N)n1 | – | – | – | – | – | inactive | inactive | inactive | inactive
c1cncnc1 | – | – | – | – | – | inactive | inactive | inactive | inactive
Cc1cscn1 | 3250 µM | 5420 µM | 6070 µM | 109000 µM | – | – | – | – | –
Cc1ncc(C[n+]2csc(CCOP(=O)(O)OP(=O)(O)OP(=O)(O)O)c2C)c(N)n1 | 881 µM | 5200 µM | 10000 µM | 1000 µM | – | – | – | – | –
C[n+]1ccsc1 | 939 µM | 317 µM | 286 µM | 2.95 µM | – | – | – | – | –
CCc1sc[n+](C)c1C | 5.43 µM | 11.1 µM | 8.34 µM | 0.935 µM | – | – | – | – | –
Nc1ccncn1 | 8850 µM | 5020 µM | 9720 µM | 4240 µM | 5.71 | – | – | – | –
c1cscn1 | – | – | – | – | – | inactive | inactive | inactive | inactive
Cc1ncc(C[n+]2csc(CCOP(=O)(O)O)c2C)c(N)n1 [MONOPHOSPHOTHIAMINE] | 9270 µM | 3010 µM | 11300 µM | 5930 µM | – | – | – | – | –
Cc1c(CCO)sc[n+]1C | 1250 µM | 148 µM | 75.6 µM | 18800 µM | – | – | – | – | –
Cc1ncc(C[n+]2csc(CCO[P@](=O)(O)OP(=O)(O)O)c2C)c(N)n1 | 6740 µM | 14600 µM | 14200 µM | 58400 µM | – | – | – | – | –
